# Results published in patent US8030543B2, “Efficient transformation method for sunflower and oil seeds based on positive selection” (Avesthagen Limited, priority 2006, dated 2011).
# Legend:
# [1] = system: sunflower CMS234B SEA explants; assay: Screening for capability to utilize xylose as carbon source (untransformed SEA explants); type: cell-based, Helianthus annuus; conditions: MS medium with 0.5 mg/l BAP, 3% Xylose as carbon source
# Experimental: In order to determine if sunflower is capable of using xylose as the carbon source, explants were cultured on regeneration media containing sucrose and xylose respectively.
# [2] = system: Helianthus annuus CMS234B split embryonic axis (SEA) explants; assay: Positive selection and regeneration of sunflower SEA explants transformed with pCAMBIA-XI on media containing Xylose; type: cell-based; conditions: for No of PCR +ve explants / No. of explants Regenerating into shootlets / No. of explants surviving I selection (15 days) / No. of explants surviving I selection (21 days) / No. of explants surviving II selection (15 days) / PCR +ve Regenerants: 100 explants infected, pCAMBIA-XI
# Experimental: The seeds were sterilized and the split embryonic axis isolated as described earlier. […] Agrobacterium cells from the glycerol stock were grown overnight in Luria-Bertani (LB) medium containing Rifampicin (10 μg/ml), Gentamycin (10 μg/ml) and Kanamycin (50 μg/ml) and grown exponentially for a period of 4-6 hrs to reach O.D600=1.0. The cells were centrifuged at 6000 rpm for 5 min at 4° C. and then washed and resuspended in MS liquid to reach an O.D600 of 1.0. The excised explants were immediately transferred to a vacuum infiltration flask containing 25 ml of the resuspended culture. Vacuum at 200 atm pressure for 15 min was applied and quickly released. The culture was then drained off completely and explants collected on a blotting paper. […] After two days of co-cultivation, the explants were washed thoroughly with Murashige and Skoog (1972) liquid medium containing Cefotaxime 250 mg/l. […] After the selection period the shoots were subcultured onto Elongation medium containing ½ Strength MS medium. […] The explants surviving first selection were transferred for a second selection to the same medium for 21 days. Explants were subsequently transferred to their respective elongation media. Healthy shootlets were transferred to their respective rooting media.
smiles,measurement,setting,value
"O=C[C@H](O)[C@@H](O)[C@H](O)CO [Xylose, D-Xylose]",time within which explants brown and die,[1],2-3 weeks
same,No of PCR +ve explants,[2]; Xylose Conc. 15 (mg/l),28
same,No. of explants Regenerating into shootlets,[2]; Xylose Conc. 15 (mg/l),20
same,No. of explants surviving I selection (15 days),[2]; Xylose Conc. 15 (mg/l),80
same,No. of explants surviving I selection (21 days),[2]; Xylose Conc. 15 (mg/l),70
same,No. of explants surviving II selection (15 days),[2]; Xylose Conc. 15 (mg/l),60
same,PCR +ve Regenerants,[2]; Xylose Conc. 15 (mg/l),10
same,No of PCR +ve explants,[2]; Xylose Conc. 20 (mg/l),30
same,No. of explants Regenerating into shootlets,[2]; Xylose Conc. 20 (mg/l),12
same,No. of explants surviving I selection (15 days),[2]; Xylose Conc. 20 (mg/l),72
same,No. of explants surviving I selection (21 days),[2]; Xylose Conc. 20 (mg/l),65
same,No. of explants surviving II selection (15 days),[2]; Xylose Conc. 20 (mg/l),57
same,PCR +ve Regenerants,[2]; Xylose Conc. 20 (mg/l),7
same,No of PCR +ve explants,[2]; Xylose Conc. 25 (mg/l),28
same,No. of explants Regenerating into shootlets,[2]; Xylose Conc. 25 (mg/l),7
same,No. of explants surviving I selection (15 days),[2]; Xylose Conc. 25 (mg/l),65
same,No. of explants surviving I selection (21 days),[2]; Xylose Conc. 25 (mg/l),55
same,No. of explants surviving II selection (15 days),[2]; Xylose Conc. 25 (mg/l),40
same,PCR +ve Regenerants,[2]; Xylose Conc. 25 (mg/l),6
same,No of PCR +ve explants,[2]; Xylose Conc. 30 (mg/l),18
same,No. of explants Regenerating into shootlets,[2]; Xylose Conc. 30 (mg/l),5
same,No. of explants surviving I selection (15 days),[2]; Xylose Conc. 30 (mg/l),50
same,No. of explants surviving I selection (21 days),[2]; Xylose Conc. 30 (mg/l),38
same,No. of explants surviving II selection (15 days),[2]; Xylose Conc. 30 (mg/l),20
same,PCR +ve Regenerants,[2]; Xylose Conc. 30 (mg/l),5
same,green tissue of plantlets,"[2]; plantlets grown on D-Xylose medium, compared to plantlets grown on Hygromycin",90%
same,healthy shoots per explants,[2]; positive selection on Xylose,2-3
